Several values for one entry are separate records, joined by “and”; a condition that tells them apart may be missing. Identical values can stand only once.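 Dose response: 5 concentrations. Exposure: 48 h. Format: 96-well plates. Endpoint: linear interpolation; highest concentration if not reached. Here, GI50 denotes the concentration required for 50% inhibition of growth. The concentration for full growth arrest is given as TGI.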
Legend:
Assay in all cases: NCI-60 cell line screen, 48 h
[1] = tested on: 786-0 renal
[2] = tested on: MALME-3M melanoma
[3] = tested on: MOLT-4 leukemia
[4] = tested on: RXF 393 renal
[5] = tested on: SK-MEL-2 melanoma
[6] = tested on: SK-MEL-28 melanoma
[7] = tested on: SN12C renal
[8] = tested on: TK-10 renal
[9] = tested on: U251 CNS
[10] = tested on: SF-539 CNS

O=C1CCC(c2ccccc2)(c2ccccc2)CC1
TGI [1]: > 100 µM | TGI [2]: > 100 µM | TGI [3]: > 100 µM | TGI [4]: > 100 µM | TGI [5]: > 100 µM | TGI [6]: > 100 µM | TGI [7]: > 100 µM | TGI [8]: > 100 µM | TGI [9]: > 100 µM

Nc1nc(Cl)cc(NCCCCCCCCCCNc2cc(Cl)nc(N)n2)n1
TGI [1]: 91.5 µM | TGI [4]: > 100 µM | TGI [10]: > 100 µM | TGI [5]: > 100 µM | TGI [7]: > 100 µM | TGI [8]: > 100 µM | TGI [9]: > 100 µM

CCNC1=CC(=O)c2ncccc2C1=O
GI50 [1]: 9.09 µM | TGI [1]: 23.4 µM | GI50 [2]: 1.03 µM | TGI [2]: 2.23 µM | GI50 [3]: 2.94 µM | TGI [3]: 14.3 µM | GI50 [4]: 5.65 µM | TGI [4]: 17.9 µM | GI50 [10]: 1.89 µM | TGI [10]: 3.76 µM | GI50 [5]: 2.36 µM | TGI [5]: 7.53 µM | GI50 [6]: 1.71 µM | TGI [6]: 3.52 µM | GI50 [7]: 1.4 µM | TGI [7]: 2.78 µM | GI50 [8]: 15.6 µM | TGI [8]: 29.7 µM | GI50 [9]: 2.49 µM | TGI [9]: 13.6 µM

Cc1ccc(C)c(NC(=O)CCc2n[nH]c(=S)o2)c1
TGI [1]: > 100 µM | TGI [2]: > 100 µM | TGI [3]: > 100 µM | TGI [4]: > 100 µM | TGI [10]: > 100 µM | TGI [6]: > 100 µM | TGI [7]: > 100 µM | TGI [8]: > 100 µM | TGI [9]: > 100 µM

CCOc1ccc(N2C(N)=NC(N)=NC2(C)C)cc1
GI50 [1]: 44.9 µM | TGI [1]: > 100 µM | GI50 [2]: 56.4 µM | TGI [2]: > 100 µM | GI50 [3]: 65.6 µM | TGI [3]: > 100 µM | GI50 [4]: > 100 µM | TGI [4]: > 100 µM | GI50 [10]: 28.6 µM | TGI [10]: > 100 µM | GI50 [5]: > 100 µM | TGI [5]: > 100 µM | GI50 [6]: 53.7 µM | TGI [6]: > 100 µM | GI50 [7]: 52.7 µM | TGI [7]: > 100 µM | GI50 [8]: > 100 µM | TGI [8]: > 100 µM | GI50 [9]: 36.6 µM | TGI [9]: > 100 µM

Cn1cc(/C=C2\C(=O)Nc3cccnc32)c2ccccc21
GI50 [1]: > 25 µM | TGI [1]: > 25 µM | GI50 [2]: 24.5 µM | TGI [2]: > 25 µM | GI50 [3]: 11.5 µM | TGI [3]: > 25 µM | GI50 [4]: 10.8 µM | TGI [4]: > 25 µM | GI50 [10]: > 25 µM | TGI [10]: > 25 µM | GI50 [5]: 11.6 µM | TGI [5]: > 25 µM | GI50 [6]: > 25 µM | TGI [6]: > 25 µM | GI50 [7]: 9.88 µM | TGI [7]: > 25 µM | GI50 [8]: 12.3 µM | TGI [8]: > 25 µM | GI50 [9]: > 25 µM | TGI [9]: > 25 µM

C1CCN2CC34CC(CC5CCCN(C6CCCC3N6)C54)C2C1 (stereo not drawn)
TGI [1]: > 100 µM | TGI [2]: > 100 µM | TGI [3]: > 100 µM | TGI [4]: > 100 µM | TGI [10]: > 100 µM | TGI [5]: > 100 µM | TGI [6]: > 100 µM | TGI [7]: > 100 µM | TGI [8]: > 100 µM | TGI [9]: > 100 µM

NC(=O)c1ccc(NC(=O)c2oc3ccccc3c2-c2cnn(-c3ccccc3)c2)cc1
GI50 [1]: 5.41 µM | TGI [1]: > 85.2 µM | GI50 [2]: > 100 µM | TGI [2]: > 100 µM | GI50 [3]: > 100 µM | TGI [3]: > 100 µM | GI50 [4]: 1.33 µM | TGI [4]: 6.03 µM | GI50 [10]: > 100 µM | TGI [10]: > 100 µM | GI50 [5]: 20.4 µM | TGI [5]: > 100 µM | GI50 [6]: > 100 µM | TGI [6]: > 100 µM | GI50 [7]: > 100 µM | TGI [7]: > 100 µM | GI50 [8]: > 23.3 µM | TGI [8]: > 100 µM | GI50 [9]: 5.42 µM | TGI [9]: > 100 µM

COS(=O)CCOC(=O)c1ccccc1SSc1ccccc1C(=O)OCCS(=O)OC (stereo not drawn)
TGI [1]: 38.2 µM | TGI [2]: 63.7 µM | TGI [3]: 22.8 µM | TGI [4]: 28 µM | TGI [10]: 65.6 µM | TGI [5]: > 100 µM | TGI [6]: > 100 µM | TGI [7]: 85.9 µM | TGI [8]: > 100 µM | TGI [9]: > 100 µM

C[Si](C)(C)[C@@]1([Se]c2ccccc2)CC[C@@H]1C(=O)c1ccccc1
TGI [1]: > 100 µM | TGI [2]: > 100 µM | TGI [3]: 75.1 µM | TGI [4]: > 100 µM | TGI [10]: > 100 µM | TGI [5]: > 100 µM | TGI [6]: > 100 µM | TGI [7]: > 100 µM | TGI [8]: > 100 µM | TGI [9]: > 100 µM

CC(C)(C)c1ccc(C(O)(c2ccc(C(C)(C)C)cc2)c2ccc(C(C)(C)C)cc2)cc1
TGI [1]: > 100 µM | TGI [2]: > 100 µM | TGI [3]: > 100 µM | TGI [10]: > 100 µM | TGI [5]: > 100 µM | TGI [6]: > 100 µM | TGI [7]: > 100 µM | TGI [8]: > 100 µM | TGI [9]: > 100 µM

COc1ccccc1OCC(COC(=O)Nc1ccc(C)cc1)OC(=O)Nc1ccc(C)cc1 (stereo not drawn)
TGI [1]: 44 µM | TGI [2]: 48.3 µM | TGI [3]: 48.8 µM | TGI [4]: 20.2 µM | TGI [10]: 37.7 µM | TGI [5]: 31.4 µM | TGI [6]: 60.8 µM | TGI [7]: 42.3 µM | TGI [8]: 47 µM | TGI [9]: 27.3 µM

C[C@H]1CC(=O)[C@@]2(O)C#C/C=C\C#C[C@@H]3Nc4c(cc(O)c5c4C(=O)c4ccccc4C5=O)[C@]24O[C@]314
GI50 [1]: 0.00435 µM | TGI [1]: 0.106 µM and 0.262 µM | TGI [2]: 0.518 µM | GI50 [3]: 0.0025 µM | TGI [3]: 0.00278 µM | GI50 [4]: 0.0373 µM | TGI [4]: 0.0684 µM and 0.242 µM | GI50 [10]: < 0.001 µM | TGI [10]: 0.0219 µM and 0.0281 µM | GI50 [6]: 0.0409 µM | TGI [6]: 0.241 µM and 0.729 µM | GI50 [7]: 0.0025 µM | TGI [7]: 0.0288 µM and 0.0201 µM | GI50 [8]: 0.492 µM | TGI [9]: 0.453 µM

Fc1cc(Nc2ccc3c(OCCCN4CCOCC4)cccc3n2)ccc1Cl
GI50 [1]: 1.79 µM | TGI [1]: 3.53 µM | GI50 [2]: 1.91 µM | TGI [2]: 4.36 µM | GI50 [3]: 1.68 µM | TGI [3]: 3.88 µM | GI50 [4]: 2.16 µM | TGI [4]: 4.74 µM | GI50 [10]: 1.95 µM | TGI [10]: 4.01 µM | GI50 [5]: 1.96 µM | TGI [5]: 4.04 µM | GI50 [6]: 1.82 µM | TGI [6]: 3.56 µM | GI50 [7]: 4.36 µM | TGI [7]: 19.3 µM | GI50 [8]: 2.01 µM | TGI [8]: 4.1 µM | GI50 [9]: 1.85 µM | TGI [9]: 3.75 µM

COc1cc(C(=O)c2c(-c3ccccc3)oc3ccccc23)cc(OC)c1O
GI50 [1]: 4.15 µM | TGI [1]: 17 µM | GI50 [2]: 1.13 µM | TGI [2]: 20.5 µM | GI50 [3]: 2.69 µM | TGI [3]: 22.2 µM | GI50 [4]: 1.76 µM | TGI [4]: 8.95 µM | GI50 [10]: 1.64 µM | TGI [10]: 5.63 µM | GI50 [5]: 6.78 µM | TGI [5]: 29.2 µM | GI50 [6]: 10.4 µM | TGI [6]: 25.1 µM | GI50 [7]: 5.23 µM | TGI [7]: 26.3 µM | GI50 [8]: 20.5 µM | TGI [8]: > 100 µM | GI50 [9]: 3.21 µM | TGI [9]: 16.1 µM

Cc1[nH]nc(C(=O)N/N=C/c2cccs2)c1N=NN(C)C
TGI [1]: 69.6 µM | TGI [2]: 56.7 µM | TGI [3]: 90.7 µM | TGI [4]: 36 µM | TGI [10]: 36.5 µM | TGI [5]: 79.8 µM | TGI [7]: > 100 µM | TGI [8]: 73.5 µM | TGI [9]: 32.1 µM
